In ChEMBL document CHEMBL3885881, “DrugMatrix”:

Species: Rattus norvegicus
Assay: DrugMatrix - Regimen: Daily Repeat
Assay type: toxicity, organism-based, Sprague-Dawley
Parameters: regimen Daily Repeat, gender Male, age 6-8 weeks
Settings: in vivo, po, route oral GAVAGE, […]; for ABSOLUTE BASOPHIL / ABSOLUTE EOSINOPHIL / ABSOLUTE LYMPHOCYTE / ABSOLUTE MONOCYTE / ABSOLUTE SEGMENTED NEUTROPHIL / BASOPHIL / EOSINOPHIL / ERYTHROCYTE COUNT / HEMATOCRIT / HEMOGLOBIN / LEUKOCYTE COUNT / LYMPHOCYTE / MEAN CORPUSCULAR HEMOGLOBIN / MEAN CORPUSCULAR HEMOGLOBIN CONCENTRATION / MEAN CORPUSCULAR VOLUME / MONOCYTE / NEUTROPHIL / NUCLEATED RED BLOOD CELLS / PLATELET COUNT: tissue Blood; for ALANINE AMINOTRANSFERASE / ALBUMIN / ALKALINE PHOSPHATASE / ASPARTATE AMINOTRANSFERASE / BLOOD UREA NITROGEN / CARBON DIOXIDE / CHLORIDE / CHOLESTEROL / CREATINE PHOSPHOKINASE / CREATININE / GLUCOSE / LACTATE DEHYDROGENASE / LIPASE / PHOSPHORUS / POTASSIUM / SODIUM / TOTAL BILIRUBIN / TOTAL PROTEIN / URIC ACID: tissue Plasma
[1] = 0 mg/kg, 72 h, dose level Control, time 3 day
[2] = 0 mg/kg, 120 h, dose level Control, time 5 day
[3] = 43 mg/kg, 72 h, dose level Low, time 3 day
[4] = 43 mg/kg, 120 h, dose level Low, time 5 day

## Clc1ccc(COC(Cn2ccnc2)c2ccc(Cl)cc2Cl)cc1 (configuration not stated) [ECONAZOLE]
[1]
  ABSOLUTE BASOPHIL: 0 CELLS/uL
  ABSOLUTE EOSINOPHIL: 0 CELLS/uL
  ABSOLUTE LYMPHOCYTE: 7601 CELLS/uL
  ABSOLUTE MONOCYTE: 354.33 CELLS/uL
  ABSOLUTE SEGMENTED NEUTROPHIL: 744.67 CELLS/uL
  BASOPHIL: 0%
  EOSINOPHIL: 0%
  ERYTHROCYTE COUNT: 5.03 x10E6/uL
  HEMATOCRIT: 33.7%
  HEMOGLOBIN: 13.43 G/DL
  LEUKOCYTE COUNT: 8.7 x10E3/uL
  LYMPHOCYTE: 86.33%
  MEAN CORPUSCULAR HEMOGLOBIN: 26.7 pg
  MEAN CORPUSCULAR HEMOGLOBIN CONCENTRATION: 39.83 G/DL
  MEAN CORPUSCULAR VOLUME: 67 fL
  MONOCYTE: 4.67%
  NEUTROPHIL: 9%
  NUCLEATED RED BLOOD CELLS: 0 /100WBC
  PLATELET COUNT: 1151 x10E3/uL
  ALANINE AMINOTRANSFERASE: 97.67 u/L
  ALBUMIN: 4.07 G/DL
  ALKALINE PHOSPHATASE: 607.67 u/L
  ASPARTATE AMINOTRANSFERASE: 101 u/L
  BLOOD UREA NITROGEN: 13.33 mg/dL
  CARBON DIOXIDE: 36 mmol/L
  CHLORIDE: 99.67 MEQ/L
  CHOLESTEROL: 75.67 mg/dL
  CREATINE PHOSPHOKINASE: 279.67 u/L
  CREATININE: 0.16 mg/dL
  GLUCOSE: 164 mg/dL
  LACTATE DEHYDROGENASE: 115 u/L
  LIPASE: 12.67 u/L
  PHOSPHORUS: 8.77 mg/dL
  POTASSIUM: 5.79 MEQ/L
  SODIUM: 142.83 MEQ/L
  TOTAL BILIRUBIN: 0.27 mg/dL
  TOTAL PROTEIN: 5.8 G/DL
  URIC ACID: 0.67 mg/dL
[2]
  ABSOLUTE BASOPHIL: 0 CELLS/uL
  ABSOLUTE EOSINOPHIL: 0 CELLS/uL
  ABSOLUTE LYMPHOCYTE: 4426.33 CELLS/uL
  ABSOLUTE MONOCYTE: 102.67 CELLS/uL
  ABSOLUTE SEGMENTED NEUTROPHIL: 337.67 CELLS/uL
  BASOPHIL: 0%
  EOSINOPHIL: 0%
  ERYTHROCYTE COUNT: 5.31 x10E6/uL
  HEMATOCRIT: 32.5%
  HEMOGLOBIN: 13.17 G/DL
  LEUKOCYTE COUNT: 4.87 x10E3/uL
  LYMPHOCYTE: 90.33%
  MEAN CORPUSCULAR HEMOGLOBIN: 24.93 pg
  MEAN CORPUSCULAR HEMOGLOBIN CONCENTRATION: 40.67 G/DL
  MEAN CORPUSCULAR VOLUME: 61.33 fL
  MONOCYTE: 2.33%
  NEUTROPHIL: 7.33%
  NUCLEATED RED BLOOD CELLS: 0.33 /100WBC
  PLATELET COUNT: 848.33 x10E3/uL
  ALANINE AMINOTRANSFERASE: 59.67 u/L
  ALBUMIN: 3.87 G/DL
  ALKALINE PHOSPHATASE: 452 u/L
  ASPARTATE AMINOTRANSFERASE: 81.33 u/L
  BLOOD UREA NITROGEN: 13.67 mg/dL
  CARBON DIOXIDE: 26.33 mmol/L
  CHLORIDE: 103.67 MEQ/L
  CHOLESTEROL: 65.67 mg/dL
  CREATINE PHOSPHOKINASE: 355.33 u/L
  CREATININE: 0.14 mg/dL
  GLUCOSE: 171.33 mg/dL
  LACTATE DEHYDROGENASE: 118 u/L
  LIPASE: 11.33 u/L
  PHOSPHORUS: 11.13 mg/dL
  POTASSIUM: 5.18 MEQ/L
  SODIUM: 143.17 MEQ/L
  TOTAL BILIRUBIN: 0.2 mg/dL
  TOTAL PROTEIN: 5.87 G/DL
  URIC ACID: 0.63 mg/dL
[3]
  ABSOLUTE BASOPHIL: 0 CELLS/uL
  ABSOLUTE EOSINOPHIL: 68.67 CELLS/uL
  ABSOLUTE LYMPHOCYTE: 8555.33 CELLS/uL
  ABSOLUTE MONOCYTE: 189.33 CELLS/uL
  ABSOLUTE SEGMENTED NEUTROPHIL: 653.33 CELLS/uL
  BASOPHIL: 0%
  EOSINOPHIL: 0.67%
  ERYTHROCYTE COUNT: 4.93 x10E6/uL
  HEMATOCRIT: 32.1%
  HEMOGLOBIN: 12.8 G/DL
  LEUKOCYTE COUNT: 9.47 x10E3/uL
  LYMPHOCYTE: 90.67%
  MEAN CORPUSCULAR HEMOGLOBIN: 25.97 pg
  MEAN CORPUSCULAR HEMOGLOBIN CONCENTRATION: 39.9 G/DL
  MEAN CORPUSCULAR VOLUME: 65.1 fL
  MONOCYTE: 2%
  NEUTROPHIL: 6.67%
  NUCLEATED RED BLOOD CELLS: 0 /100WBC
  PLATELET COUNT: 1050.67 x10E3/uL
  ALANINE AMINOTRANSFERASE: 100.33 u/L
  ALBUMIN: 3.8 G/DL
  ALKALINE PHOSPHATASE: 429 u/L
  ASPARTATE AMINOTRANSFERASE: 104.67 u/L
  BLOOD UREA NITROGEN: 11.33 mg/dL
  CARBON DIOXIDE: 37.67 mmol/L
  CHLORIDE: 107 MEQ/L
  CHOLESTEROL: 72.33 mg/dL
  CREATINE PHOSPHOKINASE: 331 u/L
  CREATININE: 0.19 mg/dL
  GLUCOSE: 156.67 mg/dL
  LACTATE DEHYDROGENASE: 94 u/L
  LIPASE: 10.33 u/L
  PHOSPHORUS: 9.27 mg/dL
  POTASSIUM: 5.1 MEQ/L
  SODIUM: 138.9 MEQ/L
  TOTAL BILIRUBIN: 0.13 mg/dL
  TOTAL PROTEIN: 5.6 G/DL
  URIC ACID: 0.57 mg/dL
[4]
  ABSOLUTE BASOPHIL: 0 CELLS/uL
  ABSOLUTE EOSINOPHIL: 31.33 CELLS/uL
  ABSOLUTE LYMPHOCYTE: 7327.67 CELLS/uL
  ABSOLUTE MONOCYTE: 294.67 CELLS/uL
  ABSOLUTE SEGMENTED NEUTROPHIL: 379.67 CELLS/uL
  BASOPHIL: 0%
  EOSINOPHIL: 0.33%
  ERYTHROCYTE COUNT: 5.33 x10E6/uL
  HEMATOCRIT: 33.3%
  HEMOGLOBIN: 13 G/DL
  LEUKOCYTE COUNT: 8.03 x10E3/uL
  LYMPHOCYTE: 91%
  MEAN CORPUSCULAR HEMOGLOBIN: 24.4 pg
  MEAN CORPUSCULAR HEMOGLOBIN CONCENTRATION: 39.07 G/DL
  MEAN CORPUSCULAR VOLUME: 62.47 fL
  MONOCYTE: 3.67%
  NEUTROPHIL: 5%
  NUCLEATED RED BLOOD CELLS: 0 /100WBC
  PLATELET COUNT: 1117.67 x10E3/uL
  ALANINE AMINOTRANSFERASE: 59 u/L
  ALBUMIN: 3.97 G/DL
  ALKALINE PHOSPHATASE: 377.67 u/L
  ASPARTATE AMINOTRANSFERASE: 79 u/L
  BLOOD UREA NITROGEN: 12.33 mg/dL
  CARBON DIOXIDE: 28.67 mmol/L
  CHLORIDE: 104.33 MEQ/L
  CHOLESTEROL: 71.33 mg/dL
  CREATINE PHOSPHOKINASE: 198.33 u/L
  CREATININE: 0.22 mg/dL
  GLUCOSE: 162 mg/dL
  LACTATE DEHYDROGENASE: 63 u/L
  LIPASE: 12.33 u/L
  PHOSPHORUS: 10.33 mg/dL
  POTASSIUM: 5.68 MEQ/L
  SODIUM: 144.73 MEQ/L
  TOTAL BILIRUBIN: 0.17 mg/dL
  TOTAL PROTEIN: 5.93 G/DL
  URIC ACID: 0.5 mg/dL
